In patent publication US12358921B2, “Antiviral heterocyclic compounds” (priority 2022, dated 2025):

What was measured:
hMPV A2 TN/94-49 = experiment: HMPV antiviral assay Method 2 (LLC-MK2 cells with CP-100-356, ATP-Lite); type: cell-based; conditions: hMPV A2 TN/94-49, LLC-MK2 cells, 4 μM CP-100-356, Method 2
Experimental: In vitro HMPV antiviral activity was evaluated using the clinical isolate A2 strain TN 94-49 (obtained from Dr. John Williams, Vanderbilt University, Tennessee) and LLC-MK2 cells (Millipore Sigma CB_85062804), an immortalized kidney epithelial cell line from Macaca mulatta. Compounds were resuspended in dimethyl sulfoxide (DMSO) at 10 mM, serially diluted and added to a 384-well source plate. Subsequently, the compounds were diluted and transferred onto 384-well assay plates using the Echo-650 automated liquid handling system (Beckman Coulter, Indiana). The test compounds were assessed in duplicate at a top concentration of 200 nM followed by 2.5-fold serial dilutions to give a total of 10 concentration points. DMSO control wells were also included on the assay plates and were either infected or not, acting as positive and negative controls. A2 TN 94-49 virus infections were performed in-suspension with LLC-MK2 cells. The cells were washed twice with PBS and removed from the cell-culture flask with 0.25% trypsin-EDTA (Thermo Fisher Scientific, MA). The trypsin-EDTA was inactivated by resuspending in 2% fetal bovine serum (FBS) and OptiMEM (ThermoFisher Scientific, MA) containing 1% antibiotic-antimycotic. Cells were pelleted by centrifuging for 5 minutes at 800 rpm, the supernatant was removed, and cells were re-suspended and washed in PBS plus 100 μg/mL CaCl2). This step was performed twice. Cells were then re-suspended in serum-free (SF)-OptiMEM containing 4 μg/mL TPCK-Trypsin (Sigma Aldrich, MO), 1% antibiotic-antimycotic (ThermoFisher Scientific, MA), 100 μg/mL CaCl2), and 4 μM of CP-100-356, a P-glycoprotein inhibitor. Cells were counted and seeded at a density of 5,000 cells/well, 12.5 μL/well. Virus infections were done at a multiplicity of infection (MOI) of 0.16 with 12.5 μL added per well. Virus infections were performed in infection media which contained SF-OptiMEM, 100 μg/mL CaCl2) and 1% antibiotic-antimycotic. HMPV viral stocks are suspended in infection media+5% glycerol, thus an equal volume of infection media+5% glycerol was added to uninfected wells to equalize the final % glycerol across all wells of the assay plate. The final concentration of TPCK-trypsin was 2 μg/mL. The final concentration of CP-100-356 was 2 μM. The assay plates were incubated at 37° C., 5% CO2 for 7 days. After 7 days incubation, 12.5 μL of ATP-Lite (PerkinElmer, MA) was added to each well and the raw luminescence values were determined using the Envision 2104 (Perkin Elmer, MA). The average of the raw luminescence values for the cells and virus only positive control wells was subtracted from all conditions tested and the percent cell health was determined by dividing these values by the average of the cells only negative control wells. EC50 values were then calculated by non-linear regression using a four-parameter curve logistic equation. The curve fit model employed was XLFit Dose Response One Site Model 200: y=(A+(B/(1+((x/C)^D)))), where A is the minimum y value, B is the maximum y value, C is the log EC50value, and D is the slope factor.

[1] = system: HUMAN RSV-A (“LONG” STRAIN); experiment: RSV-A assay (CPE, ATPlite) in Hep-2 cells; type: cell-based; conditions: human respiratory syncytial virus, 120 h, MOI 0.1, 5-day incubation
Text: Methods for RSV-A Assay Hep-2 cells, (originally derived from tumors grown in irradiated-cortisonised weanling rats that had been injected with epidermoid carcinoma tissue from the larynx of a person, but later found to be indistinguishable from HeLa cells by PCR DNA analysis), were used for the culturing of genotype A, “Long” strain RSV. Flasks were inoculated with RSV and viral stocks were collected once cytopathic effect (CPE) was greater than 90%. Viral stocks in 25% sucrose media were snap frozen using liquid nitrogen to increase viral stability. Viral stock titers were quantified by tissue culture infectious dose 50% (TCID50) using 8,000 cells per well and 3-fold viral dilutions across a 96-well plate, cultured for 4 days. Viral stock titers were also quantified by a plaque forming unit assay, as described elsewhere.
Following extensive parameter testing, the final assay is run as follows: Hep-2 cells are seeded into the inner 60 wells of a 96-well plate at 8,000 cells per well in a volume of 50 μL using Growth Media (DMEM without phenol red, 1% L-Glut, 1% Penn/Strep, 1% nonessential amino acids, 10% heat-inactivated FBS). 2-fold serial dilutions of control and test compounds are added to the wells in duplicate in a total volume of 25 μL. Viral stock is then added to the wells at a multiplicity of infection (MOI) of 0.1 in a volume of 25 μL, bringing the total volume of each well to 100 μL. The MOI is calculated using the PFU/mL, or TCID50 if unavailable. Each 96-well plate has a control column of 6 wells with cells and virus but no compound (negative control, max CPE), a column with cells but no compound or virus (positive control, minimum CPE), and a column with no cells or virus or compound (background plate/reagent control). The control wells with cells but no virus are given an additional 25 μL of growth media containing an equal quantity of sucrose as those wells receiving the viral stock in order to keep consistent in media and volume conditions. The outer wells of the plate are filled with 125 μL of moat media (DMEM, 1% Penn/Strep) to act as a thermal and evaporative moat around the test wells. Following a 5-day incubation period, the plates are read using ATPlite (50 uL added per well), which quantifies the amount of ATP (a measure of cell health) present in each well. Assay plates are read using the Envision luminometer. […] EC50 ranges are as follows: A<0.2 μM; B>0.2 μM.

SMILES | EC50 (hMPV A2 TN/94-49) [nM] | EC50 [1] [nM]
COc1cc(C(=O)NC[C@@](O)(c2cccc(F)c2)c2cc3c(c(-c4cc(F)c(F)cc4C(N)=O)n2)OC[C@]3(C)C(N)=O)cc2cn(C3(F)CC3)nc12 [Example 405] | > 200 | > 200
C[C@]1(C(N)=O)COc2c1cc([C@@](O)(CNC(=O)c1ccc3nc(C4CC4)oc3c1)c1cccc(F)c1)nc2-c1cc(C(F)(F)F)c(F)cc1F [Example 308] | > 200 | < 200
Cc1nc2c(OC(F)F)cc(C(=O)NC[C@](O)(c3cc4c(c(-c5cc(Cl)c(F)cc5F)n3)OC[C@]4(C)C(N)=O)c3ccccc3F)cc2cc1Br [Example 139] | > 200 | < 200
COc1cc(C(=O)NC[C@@](O)(c2ccccc2)c2cc3c(c(-c4cc(Cl)c(F)cc4F)n2)OC[C@]3(C)C(N)=O)cc2cc(Cl)c(F)nc12 [Example 342] | > 200 | < 200
COc1cc(C(=O)NC[C@@](O)(c2ccnc(N)c2)c2cc3c(c(-c4cc(Cl)c(F)cc4F)n2)OC[C@]3(C)C(N)=O)cc2cn(C3CC3)nc12 [Example 484] | < 200 | < 200
COc1cc(C(=O)NC[C@@](O)(c2cnn(C)c2)c2cc3c(c(-c4cc(Cl)c(F)cc4F)n2)OC[C@]3(C)C(N)=O)cc2cn(C3CC3)nc12 [Example 153] | > 200 | > 200
COc1cc(C(=O)NC[C@@](O)(c2ccncc2)c2cc3c(c(-c4cc(Cl)c(F)cc4F)n2)OC[C@]3(C)C(N)=O)cc2cn(C3CC3)nc12 [Example 152] | < 200 | < 200
COc1cc(C(=O)NC[C@@](O)(c2ccccc2)c2cc3c(c(-c4cc(Cl)c(F)cc4F)n2)OC[C@]3(C)C(N)=O)cc2cc(Cl)nnc12 [Example 113] | < 200 | < 200
COc1cc(C(=O)NCC(O)(c2cc(F)nc(F)c2)c2cc3c(c(-c4cccc(Cl)c4Cl)n2)OC[C@]3(C)C(N)=O)cc2cn(C(F)F)nc12 (stereo partly drawn) [Example 500] | < 200 | < 200
COc1cc(C(=O)NC[C@@](O)(c2cccc(F)n2)c2cc3c(c(-c4cc(Cl)c(F)cc4F)n2)OC[C@]3(C)C(N)=O)cc2cn(C3(F)CC3)nc12 [Example 204] | < 200 | < 200
COc1cc(C(=O)NC[C@@](O)(c2ccccc2)c2cc3c(c(-c4ccc(F)c(F)c4Cl)n2)OC[C@]3(C)C(N)=O)cc2cn(C3(F)CC3)nc12 [Example 370] | < 200 | < 200
[2H]c1nc2c(OC)cc(C(=O)NC[C@@](O)(c3ccccc3)c3cc4c(c(-c5cc(Cl)c(F)cc5F)n3)OC[C@]4(C)C(N)=O)cc2cc1Cl [Example 220] | < 200 | < 200
COc1cc(C(=O)NC[C@@](O)(c2cccc(F)n2)c2cc3c(c(-c4cc(Cl)c(F)cc4F)n2)OC[C@]3(C)C(N)=O)cc2cn(C3CC3)nc12 [Example 203] | < 200 | < 200

Continued, values first:

EC50 (hMPV A2 TN/94-49) [nM] | EC50 [1] [nM] | SMILES
< 200 | < 200 | COc1cc([C@](O)(CNC(=O)c2cc(OC)c3nn(C4CC4)cc3c2)c2cc3c(c(-c4cccc(Cl)c4Cl)n2)OC[C@]3(C)C(N)=O)cc(OC)n1 [Example 497]
< 200 | < 200 | COc1cc(C(=O)NCC(O)(c2cc(F)nc(F)c2)c2cc3c(c(-c4cccc(Cl)c4Cl)n2)OC[C@]3(C)C(N)=O)cc2cn(C3CC3)nc12 (stereo partly drawn) [Example 499]
< 200 | < 200 | COc1cc(C(=O)NC[C@@](O)(c2ccccc2)c2cc3c(c(-c4cccc(Cl)c4Cl)n2)OC[C@]3(C)C(N)=O)cc2oc(C)nc12 [Example 95]
< 200 | < 200 | COc1cc(C(=O)NC[C@@](O)(c2ccccc2)c2cc3c(c(-c4cc(F)c(F)cc4F)n2)OC[C@]3(C)C(N)=O)cc2oc(C)nc12 [Example 193]
< 200 | < 200 | COc1cc(C(=O)NC[C@@](O)(c2cccc(C#N)c2)c2cc3c(c(-c4cc(Cl)c(F)cc4F)n2)OC[C@]3(C)C(N)=O)cc2cn(C3CC3)nc12 [Example 488]
< 200 | < 200 | COc1cc(C(=O)NC[C@@](O)(c2ccccc2)c2cc3c(c(-c4cc(F)c(F)cc4F)n2)OC[C@]3(C)C(N)=O)cc2cc(Cl)cnc12 [Example 198]
< 200 | < 200 | COc1cc(C(=O)NC[C@@](O)(c2ccnc(C#N)c2)c2cc3c(c(-c4cc(Cl)c(F)cc4F)n2)OC[C@]3(C)C(N)=O)cc2cn(C3CC3)nc12 [Example 501]
< 200 | < 200 | COc1cc(C(=O)NC[C@@](O)(c2cccc(F)c2)c2cc3c(c(-c4cc(C(F)(F)F)c(F)cc4F)n2)OC[C@]3(C)C(N)=O)cc2cn(C(F)F)nc12 [Example 301]
< 200 | < 200 | COc1cc(C(=O)NC[C@@](O)(c2ccccc2)c2cc3c(c(-c4cccc(Cl)c4Cl)n2)OC[C@]3(C)C(N)=O)cc2oc(C3CC3)nc12 [Example 96]
< 200 | < 200 | COc1cc(C(=O)NC[C@@](O)(c2ccccc2)c2cc3c(c(-c4cccc(F)c4Cl)n2)OC[C@]3(C)C(N)=O)cc2cn(C3(F)CC3)nc12 [Example 368]
< 200 | < 200 | COc1cc(C(=O)NC[C@@](O)(c2ccnc(C)c2)c2cc3c(c(-c4cc(Cl)c(F)cc4F)n2)OC[C@]3(C)C(N)=O)cc2cn(C3CC3)nc12 [Example 485]
< 200 | < 200 | [2H]C([2H])([2H])NC(=O)[C@@]1(C)COc2c1cc([C@@](O)(CNC(=O)c1cc(OC)c3nc(C4CC4)oc3c1)c1ccccc1)nc2-c1cc(Cl)c(F)cc1F [Example 110]
< 200 | < 200 | COc1cc(C(=O)NC[C@@](O)(c2cccc(F)n2)c2cc3c(c(-c4cc(Cl)c(F)cc4F)n2)OC[C@]3(C)C(N)=O)cn2cc(C3CC3)nc12 [Example 154]
< 200 | < 200 | COc1cc(C(=O)NC[C@@](O)(c2cccc(F)c2)c2cc3c(c(-c4cccc(Cl)c4Cl)n2)OC[C@]3(C)C(N)=O)cn2cc(C3CC3)nc12 [Example 337]
< 200 | < 200 | COc1cc(C(=O)NC[C@@](O)(c2cnccn2)c2cc3c(c(-c4cc(Cl)c(F)cc4F)n2)OC[C@]3(C)C(N)=O)cc2cn(C3CC3)nc12 [Example 487]
< 200 | < 200 | COc1cc(C(=O)NC[C@@](O)(c2ccccc2)c2cc3c(c(-c4cc(C(F)(F)F)c(F)cc4F)n2)OC[C@]3(C)C(N)=O)cc2cn(C3CC3)nc12 [Example 302]
< 200 | < 200 | C[C@]1(C(N)=O)COc2c1cc([C@@](O)(CNC(=O)c1ccc3nc(C4(F)CC4)oc3c1)c1ccccc1)nc2-c1cc(Cl)c(F)cc1F [Example 219]
